Measured values: patent US20080267942A1, “BENZAZEPIN-2(1H)-ONE DERIVATIVES” (Pfizer Limited, priority 2006, published 2008)

Experiments:
[1] = target: T1, bovine beta-2 adrenoceptor (Bos taurus, UniProt Q28044); test: cAMP assay in CHO cells transfected with the bovine beta-2 adrenoceptor (DiscoveRx Hit Hunter cAMP II); format: cell-based; conditions: CHO cells transfected with bovine beta-2 adrenoceptor, 30 minutes incubation with compound
T1 construct: expressed in transfected cells; host or cells: CHO cells
In short: (§1)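 CHO cells expressing porcine or bovine β2 receptor pre-incubated 30 min with 0.5 mM IBMX, then exposed to compound (5×10^−12 to 10^−5 M) for 30 min at 37 °C. cAMP read by enzyme-fragment complementation kit; duplicate samples, EC50 from curve fitting.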

[2] = target: T2, porcine beta-2 adrenoceptor (Sus scrofa, UniProt Q28997); test: cAMP assay in CHO cells transfected with the porcine beta-2 adrenoceptor (DiscoveRx Hit Hunter cAMP II); format: cell-based; conditions: CHO cells transfected with porcine beta-2 adrenoceptor, 30 minutes incubation with compound
T2 construct: expressed in transfected cells; host or cells: CHO cells
In short: as §1

T2 sequence (Q28997 whole entry): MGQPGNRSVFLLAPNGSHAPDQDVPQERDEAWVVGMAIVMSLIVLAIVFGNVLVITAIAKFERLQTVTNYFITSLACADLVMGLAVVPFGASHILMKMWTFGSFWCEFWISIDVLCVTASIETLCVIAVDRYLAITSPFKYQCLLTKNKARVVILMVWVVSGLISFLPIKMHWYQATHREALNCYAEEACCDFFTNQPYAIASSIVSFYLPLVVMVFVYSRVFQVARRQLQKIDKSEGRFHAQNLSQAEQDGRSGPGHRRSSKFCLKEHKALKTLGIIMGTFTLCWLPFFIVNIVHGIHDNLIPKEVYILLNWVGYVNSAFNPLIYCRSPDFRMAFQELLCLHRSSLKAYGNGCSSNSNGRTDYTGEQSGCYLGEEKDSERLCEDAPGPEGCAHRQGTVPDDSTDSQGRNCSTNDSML
T1 sequence (Q28044 whole entry): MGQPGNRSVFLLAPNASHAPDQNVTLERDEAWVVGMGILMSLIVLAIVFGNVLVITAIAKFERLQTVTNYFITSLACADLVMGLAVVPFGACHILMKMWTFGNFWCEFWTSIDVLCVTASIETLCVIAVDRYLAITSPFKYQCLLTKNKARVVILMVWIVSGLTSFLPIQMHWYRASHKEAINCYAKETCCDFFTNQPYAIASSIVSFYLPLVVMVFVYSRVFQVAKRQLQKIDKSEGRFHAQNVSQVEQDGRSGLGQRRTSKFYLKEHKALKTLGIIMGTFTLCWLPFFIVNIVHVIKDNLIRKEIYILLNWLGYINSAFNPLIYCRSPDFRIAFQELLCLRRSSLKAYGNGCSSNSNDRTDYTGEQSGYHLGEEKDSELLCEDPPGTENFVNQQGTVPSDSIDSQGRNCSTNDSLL

SMILES	EC50 [1]	EC50 [2]
CC(CCc1c[nH]c2ccncc12)NC1CCn2c(=O)[nH]c3cccc(c32)C1O (stereo not drawn) [Example 31a, 7-Hydroxy-6-{[1-methyl-3-(1H-pyrrolo[3,2-c]pyridin-3-yl)propyl]amino}-4,5,6,7-tetrahydroimidazo[4,5,1-jk][1]benzazepin-2(1H)-one]	197 nM	146 nM
CC(CCc1c[nH]c2cnccc12)NC1CCn2c(=O)[nH]c3cccc(c32)C1O (stereo not drawn) [Example 32a, 7-Hydroxy-6-{[1-methyl-3-(1H-pyrrolo[2,3-c]pyridin-3-yl)propyl]amino}-4,5,6,7-tetrahydroimidazo[4,5,1-jk][1]benzazepin-2(1H)-one]	52 nM	92 nM
CC(CCc1ccc[nH]c1=O)NC1CCn2c(=O)[nH]c3cccc(c32)C1O (stereo not drawn) [Example 36, 7-Hydroxy-6-{[1-methyl-3-(2-oxo-1,2-dihydropyridin-3-yl)propyl]amino}-4,5,6,7-tetrahydroimidazo[4,5,1-jk][1]benzazepin-2(1H)-one]	59 nM	56 nM
Cc1c(CC[C@@H](C)N[C@@H]2CCn3c(=O)[nH]c4cccc(c43)[C@H]2O)cnn1C [Example 53, (6R,7R)-6-{[(1R)-3-(1,5-Dimethyl-1H-pyrazol-4-yl)-1-methylpropyl]amino}-7-hydroxy-4,5,6,7-tetrahydroimidazo[4,5,1-jk][1]benzazepin-2(1H)-one]	2 nM	2.8 nM
C[C@H](CCc1cnco1)N[C@@H]1CCn2c(=O)[nH]c3cccc(c32)[C@H]1O [Example 66, (6R,7R)-7-hydroxy-6-{[(1R)-1-methyl-3-(1,3-oxazol-5-yl)propyl]amino}-4,5,6,7-tetrahydroimidazo[4,5,1-jk][1]benzazepin-2(1H)-one]	18.7 nM	6.2 nM
COc1ncc(CC[C@@H](C)N[C@@H]2CCn3c(=O)[nH]c4cccc(c43)[C@H]2O)s1 [Example 67, (6R,7R)-7-hydroxy-6-{[(1R)-3-(2-methoxy-1,3-thiazol-5-yl)-1-methylpropyl]amino}-4,5,6,7-tetrahydroimidazo[4,5,1-jk][1]benzazepin-2(1H)-one]	2.7 nM	2.7 nM
